# Experimental data as given in patent US10577363B2, “Substituted piperidine compounds” (EPIZYME, INC., priority 2014, dated 2020).
# pIC50: −log10 of the molar value.
# Key:
# SMYD3 [1] = biological target: T1, SMYD3 (Homo sapiens (Human), UniProt Q9H7B4); experiment: SMYD3 biochemical assay (SPA, 3H-SAM methylation of MEKK2 protein substrate); settings: Table 2A; read-out: SMYD3 Biochem IC50
# Procedure, shortened: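 Enzyme: untagged full-length human SMYD3 from E. coli; substrate GST-tagged MEKK2 from insect cells. Buffer 25 mM Tris-Cl pH 8.0, 1 mM TCEP, 0.005% BSG/Tween 20. 30 min compound–enzyme preincubation at RT; 3H-SAM/MEKK2 start; stop with cold SAM (100 uM final); SPA readout in cpm.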
# SMYD3 [2] = biological target: T1, SMYD3; experiment: SMYD3 cell assay (Trimethyl-MEKK2 In-Cell Western in 293T/17 cells); type: cell-based; settings: Table 2A; read-out: SMYD3 Cell IC50
# Procedure, shortened: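 In-Cell Western readout: methanol-fixed cells stained for trimethyl-MEKK2 and flag tag, ratio per well normalized to DMSO and background controls.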
# T1 sequence (Q9H7B4 whole entry): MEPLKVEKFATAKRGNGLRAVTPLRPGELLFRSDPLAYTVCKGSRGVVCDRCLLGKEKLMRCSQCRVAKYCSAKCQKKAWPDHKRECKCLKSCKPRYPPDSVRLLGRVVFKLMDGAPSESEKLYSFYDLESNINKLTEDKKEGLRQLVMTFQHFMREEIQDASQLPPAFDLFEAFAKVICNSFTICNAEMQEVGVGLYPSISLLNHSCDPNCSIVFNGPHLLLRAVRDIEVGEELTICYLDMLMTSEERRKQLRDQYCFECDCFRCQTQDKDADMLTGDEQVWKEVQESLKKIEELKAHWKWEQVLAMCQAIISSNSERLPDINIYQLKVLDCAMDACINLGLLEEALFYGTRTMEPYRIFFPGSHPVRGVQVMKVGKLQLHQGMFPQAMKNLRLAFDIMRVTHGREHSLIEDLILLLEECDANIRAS
SMILES,pIC50 (SMYD3 [1]),pIC50 (SMYD3 [2])
"O=C(N[C@H]1C[C@H]2CC[C@@H](C1)N2S(=O)(=O)CCCN1CCCC1)c1cc(C2CC2)on1 [compound 597, 5-cyclopropyl-N-((1R,3r,5S)-8-((3-(pyrrolidin-1-yl)propyl)sulfonyl)-8-azabicyclo[3.2.1]octan-3-yl)isoxazole-3-carboxamide]",7.89,6.66
"CN(CCN)CCS(=O)(=O)N1[C@@H]2CC[C@H]1C[C@@H](NC(=O)c1cc(C3CC3)on1)C2 [compound 598, N-((1R,3r,5S)-8-((2-((2-aminoethyl)(methyl)amino)ethyl)sulfonyl)-8-azabicyclo[3.2.1]octan-3-yl)-5-cyclopropylisoxazole-3-carboxamide]",7.88,6.37
"CN(C)CCNCCS(=O)(=O)N1[C@@H]2CC[C@H]1C[C@@H](NC(=O)c1cc(C3CC3)on1)C2 [compound 599, 5-cyclopropyl-N-((1R,3r,5S)-8-((2-((2-(dimethylamino)ethyl)amino)ethyl)sulfonyl)-8-azabicyclo[3.2.1]octan-3-yl)isoxazole-3-carboxamide]",7.87,6.67
"CC1(C)CN(S(=O)(=O)N2[C@@H]3CC[C@H]2C[C@@H](NC(=O)c2cc(C4CC4)on2)C3)CCN1 [compound 600, 5-cyclopropyl-N-((1R,3r,5S)-8-((3,3-dimethylpiperazin-1-yl)sulfonyl)-8-azabicyclo[3.2.1]octan-3-yl)isoxazole-3-carboxamide]",7.87,6.93
"C[C@H]1CN(S(=O)(=O)CCCN)[C@@H](C)C[C@H]1NC(=O)c1cc(C2CC2)on1 [compound 601, N-((2S,4R,5S)-1-((3-aminopropyl)sulfonyl)-2,5-dimethylpiperidin-4-yl)-5-cyclopropylisoxazole-3-carboxamide]",7.84,6.48
"O=C(N[C@H]1C[C@H]2CC[C@@H](C1)N2S(=O)(=O)N1C2CCC1CNC2)c1cc(C2CC2)on1 [compound 602, N-((1R,3r,5S)-8-((3,8-diazabicyclo[3.2.1]octan-8-yl)sulfonyl)-8-azabicyclo[3.2.1]octan-3-yl)-5-cyclopropylisoxazole-3-carboxamide]",7.84,6.88
"CN(C)CCN(C)CCS(=O)(=O)N1[C@@H]2CC[C@H]1C[C@@H](NC(=O)c1cc(C3CC3)on1)C2 [compound 603, 5-cyclopropyl-N-((1R,3r,5S)-8-((2-((2-(dimethylamino)ethyl)(methyl)amino)ethyl)sulfonyl)-8-azabicyclo[3.2.1]octan-3-yl)isoxazole-3-carboxamide]",7.83,6.62
"COCCNCCCS(=O)(=O)N1[C@@H]2CC[C@H]1C[C@@H](NC(=O)c1cc(C3CC3)on1)C2 [compound 604, 5-cyclopropyl-N-((1R,3r,5S)-8-((3-((2-methoxyethyl)amino)propyl)sulfonyl)-8-azabicyclo[3.2.1]octan-3-yl)isoxazole-3-carboxamide]",7.79,6.70
"CNCCNCCS(=O)(=O)N1[C@@H]2CC[C@H]1C[C@@H](NC(=O)c1cc(C3CC3)on1)C2 [compound 605, 5-cyclopropyl-N-((1R,3r,5S)-8-((2-((2-(methylamino)ethyl)amino)ethyl)sulfonyl)-8-azabicyclo[3.2.1]octan-3-yl)isoxazole-3-carboxamide]",7.76,6.52
"CN1CCC(N(C)S(=O)(=O)N2[C@@H]3CC[C@H]2C[C@@H](NC(=O)c2cc(C4CC4)on2)C3)CC1 [compound 606, 5-cyclopropyl-N-((1R,3r,5S)-8-(N-methyl-N-(1-methylpiperidin-4-yl)sulfamoyl)-8-azabicyclo[3.2.1]octan-3-yl)isoxazole-3-carboxamide]",7.75,6.63
"CC(C)N1CCC(CS(=O)(=O)N2CC[C@@H](NC(=O)c3cc(C4CC4)on3)C[C@H]2C)CC1 [compound 607, 5-cyclopropyl-N-((2R,4R)-1-(((1-isopropylpiperidin-4-yl)methyl)sulfonyl)-2-methylpiperidin-4-yl)isoxazole-3-carboxamide]",7.75,5.93
"C[C@H]1CN(S(=O)(=O)CC2CCN(CCCO)CC2)CC[C@H]1NC(=O)c1cc(C2CC2)on1 [compound 608, 5-cyclopropyl-N-((3S,4R)-1-(((1-(3-hydroxypropyl)piperidin-4-yl)methyl)sulfonyl)-3-methylpiperidin-4-yl)isoxazole-3-carboxamide]",7.75,6.65
"C[C@H]1C[C@@H](NC(=O)c2cc(C3CC3)on2)CCN1S(=O)(=O)CCCNCc1cccc(C(F)(F)F)c1 [compound 609, 5-cyclopropyl-N-((2S,4S)-2-methyl-1-((3-((3-(trifluoromethyl)benzyl)amino)propyl)sulfonyl)piperidin-4-yl)isoxazole-3-carboxamide]",7.73,6.35
"CN(C)CCN(C)CCCS(=O)(=O)N1[C@@H]2CC[C@H]1C[C@@H](NC(=O)c1cc(C3CC3)on1)C2 [compound 610, 5-cyclopropyl-N-((1R,3r,5S)-8-((3-((2-(dimethylamino)ethyl)(methyl)amino)propyl)sulfonyl)-8-azabicyclo[3.2.1]octan-3-yl)isoxazole-3-carboxamide]",7.71,6.48
"CC(C)CN1CCC(CS(=O)(=O)N2CC[C@@H](NC(=O)c3cc(C4CC4)on3)C[C@H]2C)CC1 [compound 611, 5-cyclopropyl-N-((2R,4R)-1-(((1-isobutylpiperidin-4-yl)methyl)sulfonyl)-2-methylpiperidin-4-yl)isoxazole-3-carboxamide]",7.70,5.99
"C[C@H]1C[C@@H](NC(=O)c2cc(C3CC3)on2)CCN1S(=O)(=O)CCCNCC1CCCCC1 [compound 612, N-((2S,4S)-1-((3-((cyclohexylmethyl)amino)propyl)sulfonyl)-2-methylpiperidin-4-yl)-5-cyclopropylisoxazole-3-carboxamide]",7.68,6.66
"C[C@H]1CN(S(=O)(=O)CC2CCN(CCCC(F)(F)F)CC2)CC[C@H]1NC(=O)c1cc(C2CC2)on1 [compound 613, 5-cyclopropyl-N-((3S,4R)-3-methyl-1-(((1-(4,4,4-trifluorobutyl)piperidin-4-yl)methyl)sulfonyl)piperidin-4-yl)isoxazole-3-carboxamide]",7.68,6.67
"C[C@H]1CN(S(=O)(=O)N2CCC(NCc3ccccc3)CC2)CC[C@H]1NC(=O)c1cc(C2CC2)on1 [compound 614, N-((3S,4R)-1-((4-(benzylamino)piperidin-1-yl)sulfonyl)-3-methylpiperidin-4-yl)-5-cyclopropylisoxazole-3-carboxamide]",7.67,6.52
"C[C@H]1C[C@@H](NC(=O)c2cc(C3CC3)on2)CCN1S(=O)(=O)N1C2CCC1CNC2 [compound 615, N-((2S,4S)-1-((3,8-diazabicyclo[3.2.1]octan-8-yl)sulfonyl)-2-methylpiperidin-4-yl)-5-cyclopropylisoxazole-3-carboxamide]",7.66,6.63
"C[C@@H]1C[C@H](NC(=O)c2cc(C3CC3)on2)CCN1C(=O)c1ccc(C2CCCNC2)cc1 (stereo partly drawn) [compound 616, 5-cyclopropyl-N-((2R,4R)-2-methyl-1-(4-(piperidin-3-yl)benzoyl)piperidin-4-yl)isoxazole-3-carboxamide]",7.66,6.23
"CCN1CCN(S(=O)(=O)N2CC[C@H](NC(=O)c3cc(C4CC4)on3)C[C@@H]2C)CC1 [compound 617, 5-cyclopropyl-N-((2S,4S)-1-((4-ethylpiperazin-1-yl)sulfonyl)-2-methylpiperidin-4-yl)isoxazole-3-carboxamide]",7.64,6.74
"C[C@H]1CN(S(=O)(=O)CC2CCNCC2)CC[C@H]1NC(=O)c1cc(C2CC2)on1 [compound 618, 5-cyclopropyl-N-((3S,4R)-3-methyl-1-((piperidin-4-ylmethyl)sulfonyl)piperidin-4-yl)isoxazole-3-carboxamide]",7.63,6.66
"O=C(N[C@H]1C[C@H]2CC[C@@H](C1)N2S(=O)(=O)CC1CCN(CCN2CCOCC2)CC1)c1cc(C2CC2)on1 [compound 619, 5-cyclopropyl-N-((1R,3r,5S)-8-(((1-(2-morpholinoethyl)piperidin-4-yl)methyl)sulfonyl)-8-azabicyclo[3.2.1]octan-3-yl)isoxazole-3-carboxamide]",7.63,6.23
"CNCCN(C)CCS(=O)(=O)N1[C@@H]2CC[C@H]1C[C@@H](NC(=O)c1cc(C3CC3)on1)C2 [compound 620, 5-cyclopropyl-N-((1R,3r,5S)-8-((2-(methyl(2-(methylamino)ethyl)amino)ethyl)sulfonyl)-8-azabicyclo[3.2.1]octan-3-yl)isoxazole-3-carboxamide]",7.63,6.47
"C[C@H]1CN(S(=O)(=O)N2CCNCC2)CC[C@H]1NC(=O)c1cc(C2CC2)on1 [compound 621, 5-cyclopropyl-N-((3S,4R)-3-methyl-1-(piperazin-1-ylsulfonyl)piperidin-4-yl)isoxazole-3-carboxamide]",7.63,6.65
"CNCCN(C)CCCS(=O)(=O)N1[C@@H]2CC[C@H]1C[C@@H](NC(=O)c1cc(C3CC3)on1)C2 [compound 622, 5-cyclopropyl-N-((1R,3r,5S)-8-((3-(methyl(2-(methylamino)ethyl)amino)propyl)sulfonyl)-8-azabicyclo[3.2.1]octan-3-yl)isoxazole-3-carboxamide]",7.63,6.33
"C[C@H]1CN(S(=O)(=O)CC2CCN(CCO)CC2)CC[C@H]1NC(=O)c1cc(C2CC2)on1 [compound 623, 5-cyclopropyl-N-((3S,4R)-1-(((1-(2-hydroxyethyl)piperidin-4-yl)methyl)sulfonyl)-3-methylpiperidin-4-yl)isoxazole-3-carboxamide]",7.63,6.64
